How the values were obtained:
[1] = Viability of human neutrophils (WST-1 cytotoxicity test); assay type: cell-based; settings: human neutrophils 1 × 10^7 cells/ml
Procedure: A cytotoxicity test was performed to determine the adverse effect of tested compounds on humans using neutrophil cells.
The absorbance is the mean of five experimental replicates.
The % viability of neutrophils was measured by the following formula: Percentage viability: […].

[2] = target: T1, acetylcholinesterase (AChE) (Electrophorus electricus, UniProt O42275); test: biochemical; parameters: V max / V maxapp: unit not given here; settings: for K m app / V maxapp: in the presence of compound; for Ki: read-out: K i ± SEM; for K m: substrate ACh
T1 construct: purchased Sigma Aldrich C3389-2KU
T1 sequence (O42275 24-633): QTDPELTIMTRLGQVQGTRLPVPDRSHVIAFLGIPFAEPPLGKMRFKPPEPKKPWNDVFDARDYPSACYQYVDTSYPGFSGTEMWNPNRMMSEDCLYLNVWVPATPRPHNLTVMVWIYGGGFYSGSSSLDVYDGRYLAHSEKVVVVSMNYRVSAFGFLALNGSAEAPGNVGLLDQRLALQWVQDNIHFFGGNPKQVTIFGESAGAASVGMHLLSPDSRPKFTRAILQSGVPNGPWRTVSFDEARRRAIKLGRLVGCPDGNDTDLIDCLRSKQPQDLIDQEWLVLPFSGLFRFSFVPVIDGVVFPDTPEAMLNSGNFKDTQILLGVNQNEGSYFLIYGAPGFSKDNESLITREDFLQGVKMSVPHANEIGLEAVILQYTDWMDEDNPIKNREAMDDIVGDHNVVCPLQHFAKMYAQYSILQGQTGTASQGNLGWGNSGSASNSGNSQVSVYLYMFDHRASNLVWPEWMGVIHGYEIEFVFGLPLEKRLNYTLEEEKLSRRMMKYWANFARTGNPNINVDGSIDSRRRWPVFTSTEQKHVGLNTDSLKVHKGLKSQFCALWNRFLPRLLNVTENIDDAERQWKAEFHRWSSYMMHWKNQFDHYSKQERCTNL
Procedure: Enzyme-substrate (ES) is the complex of AChE and acetylcholine, while P represents the product formed after the reaction’s completion. Dissociation constant values were calculated through Dixon plots, their secondary replots, and the Lineweaver-Burk plot ([Khan et al., 2021]).
The values of K m, K i, and V max were determined from Dixon and Lineweaver-Burk plots using no linear regression equation.
GraFit software ([Khan et al., 2021]) was utilized for plotting graphs. The values of the correlation coefficients, slopes, intercepts, and their standard errors were determined by the linear regression equation using the same program.
During kinetic studies, the reaction rate was measured and the effect of different concentrations of a substrate on the enzyme was investigated. The kinetic study of enzymes helped to determine the catalytic mechanism of enzymes. […] The rate of reaction [V] was plotted against various substrate concentrations [S] at constant enzyme concentration. Initially, the rate of reaction [V] increases as substrate concentration increases, and at higher [S], the enzyme becomes saturated, and the rate of reaction reaches V max, which is referred to as the maximum rate of reaction.
The dissociation constant K i values were found using three different methods. Primarily, from the Lineweaver-Burk plot, which is the reciprocal rate of reaction (1/V) versus reciprocal of substrate concentration (1/S), helps to determine the effect of inhibitor on the values of K m and V max. Secondly, the Dixon plot is the plot between the reciprocal of initial velocities (1/V) versus different concentrations of the compound. Finally, from secondary replot, the slopes of each line versus various concentrations of all compounds. Kinetic studies were carried out to determine the inhibition type, which helps to specify the mechanism of action of enzyme inhibition and the inhibitor binding moieties.

[3] = target: T1, acetylcholinesterase (AChE); test: biochemical; settings: triplicate
Procedure: AChE inhibitory activity was evaluated as described previously with few modifications using a microtiter plate reader (Molecular Device, CA, United States) ([Hasan et al., 2005]). Initially, 100 mM of sodium phosphate buffer (140 µl) pH 8, 0.25 mM DTNB (10 µl), 0.5 mM of synthetic compounds dissolved in 20 µl of ethanol and AChE (20 µl) were mixed and incubated for 15–20 min at room temperature in a microtiter plate. Finally, 10 µl of substrate ACh (0.4 mM) was added and incubated at room temperature for 4–6 min. The reaction started after the addition of ACh was hydrolyzed by AChE in the presence of DTNB; a yellow-colored 5-thio-2-nitrobenzoate anion was formed, which indicates the reaction completion and was read at a wavelength of 412 nm. All experiments were performed in triplicate and were analyzed using the SoftMax Pro6.3 program (Molecular Device, CA, United States).
Percentage inhibition was calculated by % inhibition = (O.D control-O.D test well) / O.D control)×100.
IC50 was determined at various concentrations, and EZ-Fit EK was employed to calculate the IC50 values of the test compounds (Perrella Scientific Inc., Amherst, MA, United States).
In the current study, electric eel AChE was used in the laboratory to perform an AChE inhibitory assay, but for computational analysis, we used hAChE (4EY6). Therefore, homology modeling was performed to check the similarity between the electric eel and hAChE.

[4] = tested on: isolated rabbit jejunum, K+-induced contractions; test: Calcium antagonistic activity: relaxation of high K+ (80 mM) contracted isolated rabbit jejunum; settings: mean ± SEM, n = 3
Procedure: (§1) The spasmolytic activity of the inhibitors was evaluated using isolated contracting rabbit jejunum ([Rahman et al., 2019]). Rabbits used in the current study were provided by Aga Khan Medical University, Karachi, Pakistan, weighing between 1.5 and 2.0 kg. The standard operating protocol has already been defined ([Choudhary et al., 2005]).
(§2) Calcium antagonistic activity was also performed and confirmed the relaxation of 80 mM K^+ produced contraction.
Schiff bases were also evaluated at high K^+ (80 mM) contracted isolated rabbit jejunum preparations for their spasmolytic effect, which was relaxed by all compounds (Table 3). […] Schiff bases represent a class of compounds showing a wide range of bioactivities, such as antimicrobial and anticancer activities. Schiff base compounds are the products of primary amines and condensation of carbonyl compounds, which are extensively investigated owing to their wide range of biomedical applications ([Sztanke et al., 2013]). […] The antispasmodic and Ca^+2 antagonist activity of Schiff base compounds was first reported and could be linked to the azomethine bond.

[5] = tested on: isolated rabbit jejunum, spontaneous contractions; test: Spasmolytic activity on spontaneously contracting isolated rabbit jejunum; settings: mean ± SEM, n = 3
Procedure: as §1, §2

Row | SMILES | viability at 30 min, 696.005 µM ([1]; Conc. 696.005 µM) [%] | Type of inhibition [2] | V max [2] | K m app [2] [µM] | V maxapp [2] | Ki [2] [µM] | K m [2] [µM] | IC50 [3] [µM] | Effective Dose (ED50), spasmolytic effect, High K+ [4] | viability at 30 min, 501.907 µM ([1]; neutrophils isolated from human whole blood, Conc. 501.907 µM) [%] | Effective Dose (ED50), spasmolytic effect, Spontaneous [5] [µM] | viability at 30 min, 539.913 µM ([1]; neutrophils isolated from human whole blood, Conc. 539.913 µM) [%] | viability at 30 min, 456.058 µM ([1]; neutrophils isolated from human whole blood, Conc. 456.058 µM) [%] | viability at 30 min, 491.014 µM ([1]; neutrophils isolated from human whole blood, Conc. 491.014 µM) [%]
1 | COc1ccc2c3c1O[C@H]1C[C@@H](O)C=C[C@@]31CCN(C)C2 [Galanthamine, reference compound] | 96 ± 2 |  |  |  |  |  |  |  |  |  |  |  |  | 
2 | CCSc1nc2ccccc2n1CC(=O)N/N=C\c1ccc(OC)cc1OC [Compound 11] |  | Non-competitive | 5.0 | 120 | 2.6 | 14 ± 1.6 | 120 | 37.64 ± 0.2 | 727.765 ± 0.09 µM | 98 ± 1 | 326.239 ± 0.01 |  |  | 
3 | CCSc1nc2ccccc2n1CC(=O)N/N=C/c1cccc(O)c1O [Compound 13] |  | Non-competitive | 5.0 | 120 | 2.3 | 19 ± 1.7 | 120 | 50.58 ± 0.3 | 836.865 ± 0.05 µM |  | 458.926 ± 0.01 | 77.22 ± 0.5 |  | 
4 | CCSc1nc2ccccc2n1CC(=O)N/N=C/c1c2ccccc2cc2ccccc12 [Compound 14] |  | Non-competitive |  | 120 |  |  | 120 | 51.23 ± 0.2 | 980.526 ± 0.05 µM |  | 592.876 ± 0.12 |  | 66.6 ± 4 | 
5 | CCSc1nc2ccccc2n1CC(=O)N/N=C/c1ccc(Cl)cc1Cl [Compound 10] |  | Non-competitive | 5.0 | 120 | 2.1 | 17 ± 1.3 | 120 | 51.23 ± 0.2 | 1,620.347 ± 0.04 µM |  |  |  |  | 90.1 ± 2.3
